{"source": "patent US8436005B2", "about": "“Macrocyclic pyrimidine derivatives” (Abbott Laboratories, priority 2008, dated 2013)", "system": "carrageenan-induced thermal hyperalgesia", "experiment": "Acute model of carrageenan-induced thermal hyperalgesia (hotbox assay)", "type": "in vivo", "settings": "100 micromole/kg intraperitoneally, 90 minutes after carrageenan, tested 30 minutes after dosing", "protocol": "To assess the effectiveness of representative compounds of the invention against acute model inflammatory pain, animals can be tested in an acute model of carrageenan-induced thermal hyperalgesia (see for example, Honore, et al. Behavioural Brain Research (2006) vol. 167 pp. 355-364; Porreca, et al. Journal of Pharmacology and Experimental Therapeutics (2006) vol. 318 pp. 195-205). Carrageenan is injected into the test paw of the animal, and after 90 minutes, the test drug is administered by intraperitoneal dosing; the effect on thermal hyperalgesia is assessed in a hotbox assay which is done 30 minutes after the intraperitoneal dosing of the test drug. The MPE (maximal percent effect) is reported by comparison to the control paw (not injected with carrageenan), MPE being expressed as 100 times the withdrawal latency of the carrageenan injected paw (in seconds) divided by the withdrawal latency of the control (not injected with carrageenan) paw.", "data": [{"smiles": "Nc1nc2c(c(N3CCNCC3)n1)CCCCC2c1ccccc1", "note": "(centres unmarked) [Example 19, 9-phenyl-4-(piperazin-1-yl)-6,7,8,9-tetrahydro-5H-cyclohepta[d]pyrimidin-2-amine]", "values": [{"measurement": "MPE (maximal percent effect), withdrawal latency of carrageenan injected paw vs control paw", "result": 26, "unit": "%"}]}, {"smiles": "Nc1nc2c(c(N3C[C@H]4CCCN[C@H]4C3)n1)CCCCC2c1ccccc1", "note": "(stereo partly drawn) [Example 21, 9-phenyl-4-((4aR,7aR)-tetrahydro-1H-pyrrolo[3,4-b]pyridin-6(2H,7H,7aH)-yl)-6,7,8,9-tetrahydro-5H-cyclohepta[d]pyrimidin-2-amine]", "values": [{"measurement": "MPE (maximal percent effect), withdrawal latency of carrageenan injected paw vs control paw", "result": 24, "unit": "%"}]}]}
